Data: patent US10711261B2 (priority 2015, dated 2020)
“Also recorded” adds a separate entry of the source.

Tests used:
[1] = target: recombinant human WT SOD1 (Homo sapiens, UniProt P00441); type: binding
WT DJ-1 = WT DJ-1 (Homo sapiens, UniProt Q99497); type: binding
DJ-1 [2] = target: T1, DJ-1 (Homo sapiens, UniProt Q99497); type: binding
DJ-1 [3] = target: T1, DJ-1; type: binding; remark: listed apart in the source
[4] = in vivo; cited from earlier work

Chain of recombinant human WT SOD1 (P00441 2-154): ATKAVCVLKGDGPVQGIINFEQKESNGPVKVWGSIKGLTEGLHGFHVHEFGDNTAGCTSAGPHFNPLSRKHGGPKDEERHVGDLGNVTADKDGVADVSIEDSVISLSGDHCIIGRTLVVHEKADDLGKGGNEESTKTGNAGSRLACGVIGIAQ
Chain of WT DJ-1 (Q99497 whole entry): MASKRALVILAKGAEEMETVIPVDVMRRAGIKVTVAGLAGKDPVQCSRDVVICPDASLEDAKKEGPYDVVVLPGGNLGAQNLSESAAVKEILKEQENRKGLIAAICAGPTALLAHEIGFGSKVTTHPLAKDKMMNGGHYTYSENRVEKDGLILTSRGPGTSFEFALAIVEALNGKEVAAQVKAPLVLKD
T1 sequence (Q99497 whole entry): as above

SMILES | covalent dimerization of SOD1 (change in mass of covalently linked SOD1 dimers) [1] | extent of cross-linking of SOD1 monomers [1] | covalent dimerization of DJ-1 (WT DJ-1) | site of covalent linkage in DJ-1 dimer (DJ-1 [2]) | denaturation temperature of DJ-1 (thermal stability) (DJ-1 [3]) | LD100 [4] [mg/kg]
OCC1(CO)CSSC1 [1,2-dithiolane-4,4-dimethanol] | capable of covalently dimerizing SOD1 |  |  |  |  | 
[O-][S+]1CCCCS1 (stereo not drawn) [NSC56224, 1-oxo-1,2-dithiane] | capable of covalently dimerizing SOD1 | able to cross-link the majority of SOD1 monomers in the sample | identified as a covalent dimerizer of DJ-1 | covalently linked DJ-1 dimers at Cys53; also recorded: two trypsin digest fragments of DJ-1 containing Cys53 (underlined) linked by NSC56224 | increase the measured denaturation temperature of DJ-1 relative to untreated DJ-1 | 
NC(=O)NN=C1CSSC1 [NSC72268] |  |  | identified as a specific DJ-1 covalent dimerizer; also recorded: specific covalent dimerizer of DJ-1 |  | increase the measured denaturation temperature of DJ-1 relative to untreated DJ-1 | 
CC(C)C[C@H](NC(=O)[C@H](Cc1ccccc1)NC(=O)c1cnccn1)B(O)O [bortezomib] |  |  |  |  |  | < 0.25
